Assay results as given in ChEMBL document CHEMBL4321872, “Engineering a Potent, Long-Acting, and Periphery-Restricted Oxytocin Receptor Agonist with Anorexigenic and Body Weight Reducing Effects” (J Med Chem, 2020).
Numbered stars: 1 amine (or outer) side, 2 acyl side, 3 side chain; on linkers, the order of the positions; unused ones are H or OH. Bridge positions count the residues as written; N and C are the ends. Square brackets hold non-standard residues; d marks the D form. Side chains are listed from the residue outwards. Peptide text beside a SMILES is read from it. * marks the point of attachment. X1 = O=C(O)CCCCCCCCCCCCCCCCC(=O)N[C@@H](CCCCNC(=O)CCOCCOCCNC(=O)CCOCCOCCNC(=O)C*)C(=O)O; PEG8 = NCCOCCOCCOCCOCCOCCOCCOCCOCCC(=O)O; X3 = CCCCCCCCCCCCCC(=O)NCCOCCOCCNC(=O)C*; Palmitoyl = CCCCCCCCCCCCCCCC(=O)*; X2 = O=C(CCC[*:2])[*:1]; Sar = CNCC(=O)O; Cam = NC(=O)C*

How the values were obtained:
Oxytocin receptor [1] = biological target: T1, Oxytocin receptor (Homo sapiens, UniProt P30559); assay: Agonist activity at recombinant human Gi/Go-coupled OTR expressed in CHOK1 cells assessed as induction of beta-arrestin recruitment measured after 90 mins in presence of 10% FBS by pathhunter assay; assay type: cell-based
T1 sequence (P30559 whole entry): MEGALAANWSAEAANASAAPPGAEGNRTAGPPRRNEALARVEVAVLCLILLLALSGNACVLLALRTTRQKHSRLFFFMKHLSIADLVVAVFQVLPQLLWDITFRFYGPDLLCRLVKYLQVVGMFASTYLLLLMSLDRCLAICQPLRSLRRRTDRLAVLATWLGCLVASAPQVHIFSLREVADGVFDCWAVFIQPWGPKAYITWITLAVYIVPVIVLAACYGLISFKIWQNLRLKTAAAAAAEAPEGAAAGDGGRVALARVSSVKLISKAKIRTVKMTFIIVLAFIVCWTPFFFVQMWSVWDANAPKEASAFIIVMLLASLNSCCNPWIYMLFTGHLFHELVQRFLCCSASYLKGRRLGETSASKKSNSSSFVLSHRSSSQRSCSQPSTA

[2] = biological target: T2, Oxytocin receptor (Homo sapiens) (UniProt P30559); assay: Agonist activity at recombinant human Gi/Go-coupled OTR expressed in CHOK1 cells assessed as induction of beta-arrestin recruitment measured after 90 mins in presence of 10% FBS by pathhunter assay relative to oxytocin; assay type: cell-based
T2 sequence (whole entry): T1 sequence (P30559 whole entry)

[3] = Half life in C57BL/6J mouse; assay type: ADME; conditions: in vivo
[4] = Half life in C57BL/6J mouse at 20 mg/kg, sc by LC-MS/MS analysis; assay type: ADME, organism-based; conditions: in vivo
Oxytocin receptor [5] = biological target: T1, Oxytocin receptor; assay: Agonist activity at recombinant human Gi/Go-coupled OTR expressed in CHOK1 cells assessed as induction of beta-arrestin recruitment measured after 90 mins in absence of 10% FBS by pathhunter assay; assay type: cell-based
[6] = biological target: T2, Oxytocin receptor (Homo sapiens); assay: Agonist activity at recombinant human Gi/Go-coupled OTR expressed in CHOK1 cells assessed as induction of beta-arrestin recruitment measured after 90 mins in absence of 10% FBS by pathhunter assay relative to oxytocin; assay type: cell-based
[7] = biological target: T2, Oxytocin receptor (Homo sapiens); assay: Ratio of EC50 for agonist activity at recombinant human Gi/Go-coupled OTR expressed in CHOK1 cells in presence of 10% FBS to EC50 for agonist activity at recombinant human Gi/Go-coupled OTR expressed in CHOK1 cells in absence of 10% FBS; assay type: cell-based

Row | Compound | EC50 (Oxytocin receptor [1]) [nM] | %max [2] [%] | also measured
1 | CCCCCCCCCCCCCC(=O)NCCOCCOCCNC(=O)CSC[C@@H]1NC(=O)[C@H]([C@@H](C)CC)NC(=O)[C@H](Cc2ccc(O)cc2)NC(=O)CCCSC[C@@H](C(=O)N2CCC[C@H]2C(=O)N[C@@H](CC(C)C)C(=O)NCC(N)=O)NC(=O)[C@H](CC(N)=O)NC1=O (YIC(X3)NCPLG-NH2; linker N-5 via X2) | > 1000 | 5.8 | –
2 | CC[C@H](C)[C@@H]1NC(=O)[C@H](Cc2ccc(O)cc2)NC(=O)[C@@H](N)CSSC[C@@H](C(=O)N2CCC[C@H]2C(=O)N[C@@H](CC(C)C)C(=O)NCC(N)=O)NC(=O)[C@H](CC(N)=O)NC(=O)[C@H](CCC(N)=O)NC1=O [OXYTOCIN] | – | – | half-life [3]: 2 to 3 min
3 | CCCCCCCCCCCCCC(=O)NCCOCCOCCNC(=O)CSC[C@@H]1NC(=O)[C@H](Cc2ccc(O)cc2)NC(=O)CCCSC[C@@H](C(=O)N2CCC[C@H]2C(=O)N[C@@H](CC(C)C)C(=O)NCC(N)=O)NC(=O)[C@H](CC(N)=O)NC(=O)[C@H](CCC(N)=O)NC1=O (YC(X3)QNCPLG-NH2; linker N-5 via X2) | > 1000 | 2.3 | –
4 | CCCCCCCCCCCCCCCC(=O)NCCOCCOCCOCCOCCOCCOCCOCCOCCC(=O)NCCCC[C@H](NC(=O)CNC(=O)[C@@H]1CSSC[C@H](N)C(=O)N[C@@H](Cc2ccc(O)cc2)C(=O)N[C@@H]([C@@H](C)CC)C(=O)N[C@@H](CCC(N)=O)C(=O)N[C@@H](CC(N)=O)C(=O)N1)C(=O)NCC(N)=O (H-CYIQNCGK([PEG8-Palmitoyl])G-NH2; disulfide 1-6) | – | – | half-life [4]: 20 h
5 | CC[C@H](C)[C@@H]1NC(=O)[C@H](Cc2ccc(O)cc2)NC(=O)CCCSC[C@@H](C(=O)NCC(=O)N[C@@H](CSCC(=O)NCCOCCOCCC(=O)NCCOCCOCCC(=O)NCCCC[C@H](NC(=O)CCCCCCCCCCCCCCCCC(=O)O)C(=O)O)C(=O)N(C)CC(N)=O)NC(=O)[C@H](CC(N)=O)NC(=O)[C@H](CCC(N)=O)NC1=O (YIQNCGC(X1)[Sar]-NH2; linker N-5 via X2) | 464 | – | EC50 (Oxytocin receptor [5]): 65.5 nM; %max [6]: 50%; Ratio EC50 [7]: 7.08

The next lines start with results.

Row | EC50 (Oxytocin receptor [1]) [nM] | %max [2] [%] | Compound | also measured
6 | 4.8 | 97 | CC[C@H](C)[C@@H]1NC(=O)[C@H](Cc2ccc(O)cc2)NC(=O)CCCSC[C@@H](C(=O)N2CCC[C@H]2C(=O)N[C@@H](CSCC(N)=O)C(=O)NCC(N)=O)NC(=O)[C@H](CC(N)=O)NC(=O)[C@H](CCC(N)=O)NC1=O (YIQNCPC(Cam)G-NH2; linker N-5 via X2) | –
7 | > 1000 | 2 | CC(C)C[C@H](NC(=O)[C@@H]1CCCN1C(=O)[C@@H]1CSCCCC(=O)N[C@@H](Cc2ccc(O)cc2)C(=O)N[C@@H](CSCC(N)=O)C(=O)N[C@@H](CCC(N)=O)C(=O)N[C@@H](CC(N)=O)C(=O)N1)C(=O)NCC(N)=O (YC(Cam)QNCPLG-NH2; linker N-5 via X2) | –
